In patent US20120071464A1, “METHOD OF TREATMENT OF OBSESSIVE COMPULSIVE DISORDER WITH ONDANSETRON” (priority 2009, published 2012):
“And” between values parts separate entries of the source, which are not always exact repeats. Equal values may be shown once. “Also recorded” adds a separate entry of the source.

Columns and labels:
[1] = tested on: OCD patients resistant to SRI plus antipsychotic therapy; assay: Ondansetron augmentation therapy (SRI and antipsychotic), single-blind 12-week study; format: in vivo, human
Source text: Between March 2008 and November 2008, fourteen adults aged 18 to 55 were enrolled in a study at the Institute for Neuroscience, Florence, Italy. […] All diagnoses were established utilizing a structured interview, the Structured Clinical Interview for DSM IV Axis I Disorders (SCID I). (See Spitzer, R. L. et al. ARCH GEN PSYCHIATRY 49(8):624-649) Potential subjects with a history of alcohol or substance abuse, current severe depressive symptoms, bipolar disorder, panic disorder, schizophrenia, other psychiatric conditions, heart disease, arrhythmia, liver problems (including cirrhosis), seizures, glaucoma or serious medical disease were excluded. Patients with hoarding as their only OCD symptom and women of childbearing potential not using a medically acceptable contraceptive method were also excluded. After being fully informed about the study and signing an informed consent approved by the Internal Institutional Review Board, subjects were administered an ondansetron hydrochloride (oral solution) dosage of 0.25 mg twice a day for 6 weeks, followed by 0.5 mg twice a day for 6 weeks for a total observation period of 12 weeks. […] The Y-BOCS, Montgomery-Asberg Depression Rating Scale (MADRS) (see Montgomery, S. A., BR J PSYCHIATRY 1979; 134:382-389) was administered at screening and baseline, and these assessments were repeated at every follow-up visit at 2-week intervals, along with the Clinical Global Impressions-Improvement (CGI-I) rating (see Guy, W. ECDEU Assessment Manual for Psychopharmacology. US Dept Health, Education, and Welfare publication (ADM) 76-338. Rockville, Md.: National Institute of Mental Health; 1976:218-222) and an unpublished Drug Effect scale. The Drug Effect scale asked subjects to rate “How anxious are you now?” on a scale of zero (not at all) to 10 (“the most anxious I have ever been”). Similar rating questions have been “Do you experience appearance or increment in frequency of headaches?”, “Do you experience appearance or increment in frequency of headaches fatigue?” and “Do you experience appearance or increment in frequency of headaches constipation” and so on regarding other common ondansetron side effects (diarrhea, urinary retention, itching, and dizziness). Furthermore, each evening during the first week of study medication, a study psychiatrist called the subject to ask for major or unexpected collateral effects (as chest pain, an unexplained skin rash, or tremors.). […] (See […]. et al., Am J PSYCHIATRY 1997; 154:320-321) Subjects with MADRS scores ≧18 were excluded. Ratings were administered by an investigator who was blind to the treatment condition of the patients. Given the small sample size, mean changes from baseline in rating scales were tested with a non-parametric method based on ranks (Wilcoxon signed rank test), using a two-tailed significance level of p≦0.05. Relationships among rated and demographical variables were tested with Spearman's rank correlation tests, using a two-tailed significance level of p≦0.05. Age, baseline OCD severity, and depressive symptoms were controlled for by stratifying through the Mantel-Haenszel χ2 test. Body mass index (BMI) was adjusted given the differences of ondansetron bioavailability according to BMI.

[2] = tested on: mesenteric bed or the nerves in the heart; details: animal studies; cited from earlier work
[3] = tested on: patients with treatment-resistant OCD under stable treatment with SRIs; assay: Ondansetron augmentation therapy (SRI), single-blind 12-week study with 4-week discontinuation follow-up; format: in vivo, human; parameters: average reduction in CGI scores for the whole group / YBOCS % Reduction, 6 Weeks: concentration or dose not given beside the values; details: for worsening of YBOCS symptoms during the discontinuation phase: after Week 12
Description: Twenty-one patients with a DSM-IV diagnosis of treatment-resistant OCD, under stable treatment with SRIs approved by the FDA for OCD therapy, received 12 weeks of single-blind ondansetron augmentation initiated at a dose of 0.25 mg twice daily for 2 weeks, and titrated to 0.5 mg twice daily for 10 weeks. Patients were rated every two weeks using the Yale Brown Obsessive Compulsive Scale (YBOCS) and Clinical Global Impressions Scale (CGI). Treatment-resistant patients were defined as having completed an adequate trial of SRIs at a moderate to high dose for at least 12 weeks and still having a YBOCS severity of >24, and CGI-Severity of ≧4. Treatment response was defined as an additional 25% reduction in YBOCS score from YBOCS score at the initiation of ondansetron augmentation, an end of treatment (EOT) period YBOCS of ≦24, and CGI-Improvement (CGI-I) of ≦2. Additionally, ondansetron was discontinued after 12 weeks and patients were followed up for another 4 weeks for relapse in YBOCs symptoms.

[4] = end of 6th week, non responders (n = 5)
[5] = end of 6th week, responders (n = 9)
[6] = end of 12th week, non responders (n = 5)
[7] = end of 12th week, responders (n = 9)
[8] = individual patients 1-14, versus baseline
[9] = end of 6th week, non responders (n = 9)
[10] = end of 12th week, non responders (n = 9)
[11] = end of 12th week, responders (n = 12)
[12] = individual patients, versus baseline
[13] = individual patients, EC: week 1 score carried forward

decreased appetite (number of patients) ([1]; first 2 weeks of treatment): two
headache (number of patients) ([1]; first 2 weeks of treatment): two
mild increase in anxiety levels (number of patients) ([1]; lasted only one night): One
SMILES: Cc1nccn1CC1CCc2c(c3ccccc3n2C)C1=O (stereo not drawn) [ondansetron]
average YBOCS score change of the whole group (decrease) ([1]; 6 weeks, n = 14): 16%
YBOCS score decrease, Patient 11 ([1]; 12th week, with citalopram 60 mg/day and risperidone 2 mg/day): 35%
responders to ondansetron among patients on risperidone ([1]; 12 weeks, six of seven patients): 86%
side effects throughout the study (severity) ([1]; 12 weeks, up to 1 mg/day): mild to moderate
patients meeting YBOCS criteria for treatment response (reduction >25%) ([1]; end of 6th week, 3/14 patients): 21.4%
CGI (mean, SD) [1, 4]: 4.6 (1.5)
MADRS (mean, SD) [1, 4]: 8.0 (4.0)
YBOCS (mean, SD) [1, 4]: 22.8 (3.8)
CGI (mean, SD) [1, 5]: 3.4 (1.6)
MADRS (mean, SD) [1, 5]: 6.7 (2.4)
YBOCS (mean, SD) ([1]; end of 6th week, responders (n = 9), 0.25 mg twice a day added to SRI + antipsychotic): 22.6 (4.2)
CGI (mean, SD) [1, 6]: 4.8 (1.3)
MADRS (mean, SD) [1, 6]: 7.6 (3.8)
YBOCS (mean, SD) [1, 6]: 21.4 (6.1)
CGI (mean, SD) [1, 7]: 2.3 (1.2)
MADRS (mean, SD) [1, 7]: 6.8 (2.0)
YBOCS (mean, SD) ([1]; end of 12th week, responders (n = 9), 0.5 mg twice a day in weeks 7-12): 20.8 (4.1)
average YBOCS change score of the whole group (decrease) ([1]; end of 12 weeks, n = 14): 23% and 23.2%
significant side effects ([1]; fourteen subjects): None of the fourteen subjects experienced significant side effects or worsening of OC symptoms; also recorded: None of the subjects experienced significant or lasting side effects
Mean MADRS scores ([1]; from baseline to the end of week 1): did not change significantly
YBOCS Score, 6 Weeks ([1]; individual patients 1-14): 25 (3×) and 28 and 17 (2×) and 16 and 27 and 26 and 24 (3×) and 19 and 21
YBOCS Score, 12 Weeks ([1]; individual patients 1-14): 25 (3×) and 15 (2×) and 14 and 30 and 23 and 22 (2×) and 24 and 18 and 17 and 20
Percent Reduction at 6 weeks (YBOCS) [1, 8]: 3.84% and 28.57% and 20.00% (2×) and 15.00% and 12.90% and 21.20% and 31.42% and 27.27% and 20.80% and 4.54% and 10.52% and .00% and 19.32%
Percent Reduction at 12 weeks (YBOCS) [1, 8]: 3.84% and 28.57% (2×) and 25.00% (2×) and 30.00% and 3.22% and 27.27% (2×) and 37.14% and 22.72% and 21.05% and 16.60% and 29.03%
Clinical Global Impressions-Improvement (CGI-I) scores ([1]; through week 12 (FIG. 4)): improved concurrent with improvement in the YBOCS scores
mean pulse rate or mean blood pressure ([1]; throughout the study): No change
course after discontinuation of the ondansetron ([1]; two responder patients): experienced worsening
effect on the mesenteric bed or the nerves in the heart [2]: did not appear to have effect on the mesenteric bed or the nerves in the heart
tolerability of treatment ([3]; 12 weeks, up to 0.5 mg twice daily): well tolerated
% Decrease in YBOCS Scores ([3]; All Patients, week 2): 12.66%
Avg YBOCS Scores ([3]; All Patients, week 2): 26.29
% Decrease in YBOCS Scores ([3]; All Patients, week 4): 16.93%
Avg YBOCS Scores ([3]; All Patients, week 4): 25
% Decrease in YBOCS Scores ([3]; All Patients, week 6): 19.3%
Avg YBOCS Scores ([3]; All Patients, week 6): 24.29
% Decrease in YBOCS Scores ([3]; All Patients, week 8): 21.99%
Avg YBOCS Scores ([3]; All Patients, week 8): 23.48
% Decrease in YBOCS Scores ([3]; All Patients, week 10): 24.21%
Avg YBOCS Scores ([3]; All Patients, week 10): 22.81
% Decrease in YBOCS Scores ([3]; All Patients, week 12): 26.27%
Avg YBOCS Scores ([3]; All Patients, week 12): 22.19
Avg YBOCS Scores ([3]; All Patients, week 14 (ondansetron discontinued after week 12)): 24.95
Avg YBOCS Scores ([3]; All Patients, week 16 (ondansetron discontinued after week 12)): 25.43
% Decrease in YBOCS Scores ([3]; Non-Responders, week 2): 2.93%
% Decrease in YBOCS Scores ([3]; Non-Responders, week 4): 2.93%
% Decrease in YBOCS Scores ([3]; Non-Responders, week 6): 2.56%
% Decrease in YBOCS Scores ([3]; Non-Responders, week 8): 2.2%
% Decrease in YBOCS Scores ([3]; Non-Responders, week 10): 1.47%
% Decrease in YBOCS Scores ([3]; Non-Responders, week 12): 2.93%
% Decrease in YBOCS Scores ([3]; Responders, week 2): 20.06%
% Decrease in YBOCS Scores ([3]; Responders, week 4): 27.58%
% Decrease in YBOCS Scores ([3]; Responders, week 6): 32.03%
% Decrease in YBOCS Scores ([3]; Responders, week 8): 37.05%
% Decrease in YBOCS Scores ([3]; Responders, week 10): 41.5%
% Decrease in YBOCS Scores ([3]; Responders, week 12): 44.01%
patients experiencing a treatment response in 12 weeks or less ([3]; Twelve of the 21 patients): 57%
difference between YBOCS score at baseline and after 12 weeks, non-responders ([3]; after 12 weeks): 2.9%
reduction in CGI-I from baseline, responders ([3]; after 12 weeks): 77%
reduction in YBOCS from baseline, responders ([3]; after 12 weeks): 44%
worsening of YBOCS symptoms during the discontinuation phase ([3]; all patients): 14.6%
worsening of YBOCS symptoms during the discontinuation phase ([3]; responders): 38.3%
patients experiencing response within the first 6 weeks ([3]; eight of 21 patients, 25% improvement in YBOCS, EOT YBOCS <24, CGI-I=1-2): 38%
CGI (mean, SD) [3, 9]: 4.63 (0.5)
YBOCS (mean, SD) [3, 9]: 29.56 (4.0)
CGI (mean, SD) ([3]; end of 6th week, responders (n = 12)): 1.92 (0.7)
YBOCS (mean, SD) ([3]; end of 6th week, responders (n = 12), added to SRI): 20.33 (3.8)
CGI (mean, SD) [3, 10]: 4.88 (0.4)
YBOCS (mean, SD) [3, 10]: 29.44 (4.8)
CGI (mean, SD) [3, 11]: 1.17 (0.4)
YBOCS (mean, SD) [3, 11]: 16.75 (2.7)
CGI-I Score, 6 Weeks ([3]; individual patients): 2 (7×) and 3 (2×) and 5 (6×) and 1 (3×) and 4 (3×)
CGI-I Score, 12 Weeks ([3]; individual patients): 1 (10×) and 5 (8×) and 4 and 2 (2×)
YBOCS % Reduction, 6 Weeks [3, 12]: 31.25% and 34.48% and 9.68% and 16.00% and 32.14% and 34.38% and 42.42% and 28.95% and 27.27% and 7.69% and 41.67% and 0.00% (3×) and 5.00% and 37.04% and 19.35% and −3.57% (2×) and 40.74% and 6.06%
YBOCS % Reduction, 12 Weeks [3, 12]: 34.38% and 41.38% and 9.68% and 44.00% and 42.86% and 50.00% and 51.52% and 44.74% and 42.42% and 11.54% and 45.83% and 13.79% and 2.50% and −6.25% and 48.15% and 38.71% and −7.14% and −3.57% and 44.44% and −3.85% and 9.09%
YBOCS Score, 6 Weeks [3, 13]: 22 and 19 (3×) and 28 and 21 (2×) and 27 and 24 (2×) and 14 and 29 (3×) and 38 and 32 and 17 and 25 and 16 and 26 and 31
YBOCS Score, 12 Weeks [3, 13]: 21 (2×) and 17 and 28 and 14 (2×) and 16 (3×) and 19 (2×) and 23 and 13 and 25 and 39 and 34 and 30 (2×) and 29 and 15 and 27
average reduction in CGI scores for the whole group ([3]; n = 21, 12 weeks): 46%
average reduction in YBOCS-rated symptoms of the whole group ([3]; n = 21, 12 weeks): 26.3%
